The values below are quoted from earlier work in patent US20240050950A1, “GRADIENT-BASED MICROFLUIDIC CIRCUIT, DEVICE, AND METHOD FOR PERFORMING AN ASSAY” (priority 2020, published 2024).

Where a name gives a salt, the structure may show the parent alone.

The conditions of the first data set: Table 1, antimicrobial agents/drugs; cited from earlier work.
`c1ccc([C@H]2CN3CCSC3=N2)cc1` [Levamisol (Levamisole), Levamisole]: the Molar volume was 154.1 ± 7.0 cm^3.

Take `COC(=O)Nc1nc2ccc(C(=O)c3ccccc3)cc2[nH]1` [Mebendazole]: the Molar volume is reported as 212.6 ± 3.0 cm^3.

Regarding `Cc1ncc([N+](=O)[O-])n1CCO` [Metronidazole], the Molar volume is reported as 117.8 ± 7.0 cm^3.

As to `CC[C@H](C)C(=O)O[C@H]1CCC=C2C=C[C@H](C)[C@H](CC[C@@H]3C[C@@H](O)CC(=O)O3)[C@H]21` [Mevastatin], the Molar volume was 343.8 ± 5.0 cm^3.

`CO[C@@]12[C@H](COC(N)=O)C3=C(C(=O)C(C)=C(N)C3=O)N1C[C@@H]1N[C@@H]12` [Mitomycin C (Mitomycin), Mitomycin C]: the Molar volume is reported as 213.6 ± 5.0 cm^3.

In the case of `CC[C@@]1([C@@H]2O[C@@H]([C@H]3O[C@@](O)(CO)[C@H](C)C[C@@H]3C)C[C@@H]2C)CC[C@H]([C@]2(C)CC[C@]3(C[C@H](O)[C@@H](C)[C@@H]([C@@H](C)[C@@H](OC)[C@H](C)C(=O)O)O3)O2)O1` [Monensin], the Molar volume was 552.7 ± 5.0 cm^3.

As to `CO[C@@]1(NC(=O)C(C(=O)O)c2ccc(O)cc2)C(=O)N2C(C(=O)O)=C(CSc3nnnn3C)CO[C@@H]21` (stereo partly shown) [Moxalactam (Latamoxef), Moxalactam], the Molar volume is given as 292.5 ± 7.0 cm^3.

As for `C/C(=C\C(=O)OCCCCCCCCC(=O)O)C[C@@H]1OC[C@H](C[C@@H]2O[C@H]2[C@@H](C)[C@H](C)O)[C@@H](O)[C@H]1O` [Mupirocin], the Molar volume is given as 423.0 ± 3.0 cm^3.

Regarding `CO/C(=C/C(N)=O)[C@H](C)[C@H](/C=C/c1csc(-c2csc([C@@H](C)/C=C/C=C/C(C)C)n2)n1)OC` [Myxothiazol], the Molar volume is 421.0 ± 3.0 cm^3.

Turning to `CN1C[C@H](O)[C@@H](O)[C@H](O)[C@H]1CO` [N-Methyl-1-deoxynojirimycin (1524564), N-Methyl-1-deoxynojirimycin], the Molar volume is 127.0 ± 3.0 cm^3.

`CCOc1ccc2ccccc2c1C(=O)N[C@@H]1C(=O)N2[C@@H]1SC(C)(C)[C@@H]2C(=O)O` [Nafcillin]: the Molar volume is 289.8 ± 5.0 cm^3.

For `CN(C/C=C/c1ccccc1)Cc1cccc2ccccc12` [Naftifine], the Molar volume is recorded as 265.4 ± 3.0 cm^3.

With `CC[C@@H](C(=O)O)[C@@H]1O[C@@H]([C@@H](C)[C@H](O)[C@H](C)C(=O)[C@H](CC)[C@H]2O[C@]3(C=C[C@@H](O)[C@]4(CC[C@@](C)([C@H]5CC[C@](O)(CC)[C@H](C)O5)O4)O3)[C@H](C)C[C@@H]2C)[C@@H](C)C[C@@H]1C` [Narasin], the Molar volume was 650.1 ± 5.0 cm^3.

Regarding `Cn1cc(NC(=O)c2cc(NC(=O)CN=C(N)N)cn2C)cc1C(=O)NCCC(=N)N` [Netropsin (Congocidin, Sinanomycin), Netropsin], the Molar volume is given as 282.7 ± 7.0 cm^3.

In the case of `O=C(Nc1ccc([N+](=O)[O-])cc1Cl)c1cc(Cl)ccc1O` [Niclosamide], the Molar volume is recorded as 202.4 ± 3.0 cm^3.

For the molecule `CO[C@@H]1C[C@@H](C[C@H]2CC[C@H](C)[C@H]([C@@H](C)C(=O)O)O2)O[C@]2(O[C@](C)([C@H]3CC[C@@](C)([C@@H]4O[C@@H]([C@H]5O[C@@](O)(CO)[C@H](C)C[C@@H]5C)C[C@@H]4C)O3)C[C@H]2C)[C@@H]1C` [Nigericin], the Molar volume was 607.9 ± 5.0 cm^3.

Consider `C[C@@H]([C@H](N)C(=O)N[C@H](C(=O)O)[C@H]1O[C@@H](n2ccc(=O)[nH]c2=O)[C@H](O)[C@@H]1O)[C@H](O)c1ccc(O)cn1` [Nikkomycin], for which the Molar volume was 300.9 ± 3.0 cm^3.

`C[C@@H]1C[C@H]2CC[C@H](O2)[C@H](C)C(=O)O[C@@H](C)C[C@@H]2CC[C@@H](O2)[C@@H](C)C(=O)O[C@H](C)C[C@H]2CC[C@H](O2)[C@H](C)C(=O)O[C@@H](C)C[C@@H]2CC[C@@H](O2)[C@@H](C)C(=O)O1` [Nonactin (Ammonium ionophore), Nonactin]: the Molar volume was 707.9 ± 3.0 cm^3.

Take `CO[C@@H]1[C@@H](OC(N)=O)[C@@H](O)[C@H](Oc2ccc3c(O)c(NC(=O)c4ccc(O)c(CC=C(C)C)c4)c(=O)oc3c2C)OC1(C)C` [Novobiocin]: the Molar volume was 430.9 ± 5.0 cm^3.

`C[C@@H]1[C@H](O)[C@@H](C)/C=C/C=C/CC/C=C/C=C/C=C/C=C/C(O[C@H]2O[C@H](C)[C@@H](O)[C@H](N)[C@@H]2O)CC2O[C@](O)(CC(O)C(O)CCC(O)CC(O)CC(O)CC(=O)O[C@H]1C)CC(O)C2C(=O)O` (stereo partly shown) [Nystatin (Fungicidin, Mycostatin), Nystatin]: the Molar volume is on record as 696.1 ± 5.0 cm^3.

On to `C[C@@H]1Cc2c(Cl)cc(C(=O)N[C@@H](Cc3ccccc3)C(=O)O)c(O)c2C(=O)O1` [Ochratoxin A], for which the Molar volume is 283.2 ± 3.0 cm^3.

Consider `CC[C@@H]1/C=C/C=C/C[C@H](C)[C@H](O)[C@](C)(O)C(=O)[C@H](C)[C@@H](O)[C@H](C)C(=O)[C@H](C)[C@@H](O)[C@H](C)/C=C/C(=O)O[C@H]2[C@@H](C)[C@@H](CC1)O[C@@]1(CC[C@@H](C)[C@@H](C[C@H](C)O)O1)[C@@H]2C` [Oligomycin A], for which the Molar volume is given as 688.2 ± 5.0 cm^3.

For `Cc1onc(-c2ccccc2)c1C(=O)N[C@@H]1C(=O)N2[C@@H]1SC(C)(C)[C@@H]2C(=O)O` [Oxacillin], the Molar volume is recorded as 268.4 ± 5.0 cm^3.

With `CCn1cc(C(=O)O)c(=O)c2cc3c(cc21)OCO3` [Oxolinic acid], the Molar volume is listed as 176.1 ± 3.0 cm^3.

As to `N=C1Sc2ccccc2C2=NCCCN12` [PD 404, 182, PD 404,182], the Molar volume is on record as 150.9 ± 7.0 cm^3.

As for `COc1ccc(C[C@H](N)C(=O)N[C@H]2[C@@H](O)[C@H](n3cnc4c(N(C)C)ncnc43)O[C@@H]2CO)cc1` [PUROMYCIN], the Molar volume is on record as 311.7 ± 7.0 cm^3.

For `O=C1C=C2C(=CCOC2O)O1` (stereo not shown) [Patulin], the Molar volume is given as 101.3 ± 5.0 cm^3.

`N=C(N)c1ccc(OCCCCCOc2ccc(C(=N)N)cc2)cc1` [Pentamidine]: the Molar volume was 281.4 ± 7.0 cm^3.

Consider `c1ccc2nc3ccccc3nc2c1` [Phenazine], for which the Molar volume is 144.1 ± 3.0 cm^3.

Take `C[C@@H]1O[C@@H]1P(=O)(O)O` [Phosphomycin (Fosfomycin), Phosphomycin]: the Molar volume is 88.4 ± 5.0 cm^3.

Regarding `CCn1cc(C(=O)O)c(=O)c2cnc(N3CCNCC3)nc21` [Pipemidic acid], the Molar volume is reported as 219.6 ± 3.0 cm^3.

On to `COc1cccc2c1C(=O)c1c(O)c3c(c(O)c1C2=O)C[C@@](O)(C(=O)CO)C[C@@H]3O[C@H]1C[C@H](N)[C@H](O[C@@H]2CCCCO2)[C@H](C)O1` [Pirarubicin (THP), Pirarubicin], for which the Molar volume is on record as 413.3 ± 5.0 cm^3.

Take `O=C(C1CCCCC1)N1CC(=O)N2CCc3ccccc3C2C1` (stereo not shown) [Praziquantel]: the Molar volume is reported as 254.2 ± 5.0 cm^3.

Still in this data set, the particulars now being: Table 2, anticancer drugs; cited from earlier work.
For the molecule `CCNC(=O)[C@@H]1CCCN1C(=O)[C@H](CCCNC(=N)N)NC(=O)[C@H](CC(C)C)NC(=O)[C@@H](CC(C)C)NC(=O)[C@H](Cc1ccc(O)cc1)NC(=O)[C@H](CO)NC(=O)[C@H](Cc1c[nH]c2ccccc12)NC(=O)[C@H](Cc1c[nH]cn1)NC(=O)[C@@H]1CCC(=O)N1` [Leuprolide Acetate), Leuprolide Acetate], the Molar volume was 834.5 ± 7.0 cm^3.

For the molecule `O=NN(CCCl)C(=O)NC1CCCCC1` [Lomustine], the Molar volume was 173.0 ± 7.0 cm^3.

Consider `O=C(c1cc(Cc2n[nH]c(=O)c3ccccc23)ccc1F)N1CCN(C(=O)C2CC2)CC1` [Lynparza (Olaparib), Olaparib], for which the Molar volume is listed as 301.7 ± 7.0 cm^3.

Consider `CNNCc1ccc(C(=O)NC(C)C)cc1` [Matulane (Procarbazine Hydrochloride), Procarbazine Hydrochloride], for which the Molar volume is 213.6 ± 3.0 cm^3.

Take `CC(=O)O[C@]1(C(C)=O)CC[C@H]2[C@@H]3C=C(C)C4=CC(=O)CC[C@]4(C)[C@H]3CC[C@@]21C` [Megestrol Acetate]: the Molar volume is 333.3 ± 5.0 cm^3.

`N[C@@H](Cc1ccc(N(CCCl)CCCl)cc1)C(=O)O` [Melphalan]: the Molar volume is given as 231.2 ± 3.0 cm^3.

Take `S=c1nc[nH]c2nc[nH]c12` [Mercaptopurine]: the Molar volume is given as 94.1 ± 3.0 cm^3.

Consider `CN(Cc1cnc2nc(N)nc(N)c2n1)c1ccc(C(=O)N[C@@H](CCC(=O)O)C(=O)O)cc1` [Methotrexate], for which the Molar volume was 295.6 ± 3.0 cm^3.

As to `CO[C@@]12[C@H](COC(N)=O)C3=C(C(=O)C(C)=C(N)C3=O)N1C[C@@H]1N[C@@H]12` [Mitomycin C (Mitomycin), Mitomycin C], the Molar volume is 213.6 ± 5.0 cm^3.

Take `c1cc(CN2CCCNCCNCCCNCC2)ccc1CN1CCCNCCNCCCNCC1` [Mozobil (Plerixafor), Plerixafor]: the Molar volume is on record as 522.2 ± 3.0 cm^3.

For the molecule `CCC1=C[C@@H]2CN(C1)Cc1c([nH]c3ccccc13)[C@@](C(=O)OC)(c1cc3c(cc1OC)N(C)[C@H]1[C@@](O)(C(=O)OC)[C@H](OC(C)=O)[C@]4(CC)C=CCN5CC[C@]31[C@@H]54)C2` [Navelbine (Vinorelbine Tartrate), Vinorelbine Tartrate], the Molar volume was 569.7 ± 5.0 cm^3.

With `CNC(=O)c1cc(Oc2ccc(NC(=O)Nc3ccc(Cl)c(C(F)(F)F)c3)cc2)ccn1` [Nexavar (Sorafenib Tosylate), Sorafenib Tosylate], the Molar volume is on record as 319.4 ± 3.0 cm^3.

Consider `CC1(C)NC(=O)N(c2ccc([N+](=O)[O-])c(C(F)(F)F)c2)C1=O` [Nilandron (Nilutamide), Nilutamide], for which the Molar volume is on record as 216.7 ± 3.0 cm^3.

Regarding `Cc1cn(-c2cc(NC(=O)c3ccc(C)c(Nc4nccc(-c5cccnc5)n4)c3)cc(C(F)(F)F)c2)cn1` [Nilotinib (Tasigna), Nilotinib], the Molar volume was 388.6 ± 7.0 cm^3.

In the case of `Cc1c(C(=O)Nc2ccc(N3C[C@@H](C)O[C@@H](C)C3)nc2)cccc1-c1ccc(OC(F)(F)F)cc1` [Odomzo (Sonidegib), Sonidegib], the Molar volume is recorded as 386.7 ± 3.0 cm^3.

As to `COC(=O)C[C@](O)(CCCC(C)(C)O)C(=O)O[C@@H]1C(OC)=C[C@]23CCCN2CCc2cc4c(cc2[C@H]13)OCO4` [Omacetaxine Mepesuccinate], the Molar volume is 408.4 ± 5.0 cm^3.

In the case of `C=CC(=O)Nc1cc(Nc2nccc(-c3cn(C)c4ccccc34)n2)c(OC)cc1N(C)CCN(C)C` [Osimertinib (Tagrisso), Osimertinib], the Molar volume is reported as 418.4 ± 7.0 cm^3.

For the molecule `Nc1cccc2c1C(=O)N(C1CCC(=O)NC1=O)C2=O` (stereo not shown) [Pomalidomide], the Molar volume was 173.9 ± 3.0 cm^3.

The same data set, now with this note: Table 3, antifungal drugs and other molecules; cited from earlier work.
Consider `CC[C@@H]1/C=C/C=C/C[C@H](C)[C@H](O)[C@](C)(O)C(=O)[C@H](C)[C@@H](O)[C@H](C)C(=O)[C@H](C)[C@@H](O)[C@H](C)/C=C/C(=O)O[C@H]2[C@@H](C)[C@@H](CC1)O[C@@]1(CC[C@@H](C)[C@@H](C[C@H](C)O)O1)[C@@H]2C` [Oligomycin A], for which the Molar volume is given as 688.2 ± 5.0 cm^3.
